The text below walks through data of PMC12641781, “Insights into Hepatic, Neuronal, and hERG Channel Safety of Plant-Derived Active Compounds” (Journal of Xenobiotics, 2025).

≈ marks a conversion by molar mass, not a printed value. Where two headings read alike, the source gives them in different places. Bounds are passed on as bounds.

The conditions of series [1]: dose of 10 g, healthy volunteers; cited from earlier work.
Series [2] has as its system Undifferentiated ReNcell VM cells. The series is described as follows: Neuronal viability assay, undifferentiated cells (resazurin). The series is classed as cell-based, human. The following applies: for IC50: 24 h, read-out: IC50, undifferentiated ReNcell VM cell viability; for Inhibition of undifferentiated ReNcell NSC viability: at concentrations up to 100 µM, compared to Triton X-100. How it is done: Undifferentiated ReNcell VM cells were seeded into Matrigel®-coated black, clear-bottom 96-well plates at densities of 1.5 × 10^4 per well. The cells were maintained in ReNcell NSC Maintenance Media (Merck Millipore, MA, USA), supplemented with 10% EGF and 1% penicillin/streptomycin, and were incubated at 37 °C with 5% CO2 for 24 h.
(§1) Differentiated ReNcell VM cells were seeded into Matrigel®-coated black, clear-bottom 96-well plates at densities of 3.0 × 10^4 per well. The ReNcell VM cells were incubated at 37 °C with 5% CO2 in the ReNcell Maintenance Media (Merck Millipore, MA, USA) without growth factor. The media was changed every two days for three weeks. Both cell types were treated with test compounds at 0.01, 0.1, 1, 10, and 100 μM. DMSO was used as the control for maximum cell viability, and Triton X-100 was the control for minimum viability. After 20 h of incubation at 37 °C with 5% CO2. Cell viability was assessed using the CellTiter-Blue® Cell Resazurin reagent.
On the technique in general: The colour change of resazurin is a common sign of viable cells or microbes.

In series [3] the test system is HepG2 cells. The series is described as follows: Hepatocellular viability assay (resazurin reduction). The series is classed as cell-based, Human. The following applies: for IC50: Homo sapiens, read-out: IC50, HepG2 cell viability. How it is done: HepG2 cells (1.5 × 10^4 cells per 100 µL) were seeded into black, clear-bottom 96-well plates and incubated at 37 °C with 5% CO2 for 24 h. The test compounds were prepared in complete media at final concentrations of 0.01, 0.1, 1, 10, and 100 μM and added to each well. For the negative control, 0.2% (v/v) DMSO was used to represent maximum viability, while 0.01% (v/v) Triton X-100 was used as the positive control for minimum viability. The plates were incubated at 37 °C under 5% CO2. After 20 h of incubation, 20% (v/v) CellTiter-Blue Cell Resazurin reagent was added to each well, followed by an additional 2–4 h of incubation. Fluorescence intensity, indicating resorufin levels, was measured at 590 nm using a Synergy H1 reader was obtained from Agilent Technologies (Santa Clara, CA, USA). Each data point was normalized based on the maximum and minimum cell viability data and expressed as % Relative viability using the following formula: % Relative viability=(Experimental data−Minimal viability data)/(Maximal viability data−Minimal viability data)×100

The test system of series [4] is Differentiated ReNcell VM cells. The series is described as follows: Neuronal viability assay, differentiated cells (resazurin). The series is classed as cell-based. To be noted: Homo sapiens, read-out: IC50, differentiated ReNcell VM cell viability. As for the experimental part: ReNcell VM cells were seeded into Matrigel®-coated black, clear-bottom 96-well plates at a density of 3.0 × 10^4 cells per well for differentiation assays. The cells were maintained in ReNcell NSC Maintenance Medium (Merck Millipore, Burlington, MA, USA) without growth factors to induce differentiation. The culture medium was changed every two days for three weeks.
as §1

In another series the target is T1, hERG (Homo sapiens, UniProt Q12809).
T1 construct: host or cells: HEK293 cells stably overexpressing hERG
T1 sequence (Q12809 whole entry): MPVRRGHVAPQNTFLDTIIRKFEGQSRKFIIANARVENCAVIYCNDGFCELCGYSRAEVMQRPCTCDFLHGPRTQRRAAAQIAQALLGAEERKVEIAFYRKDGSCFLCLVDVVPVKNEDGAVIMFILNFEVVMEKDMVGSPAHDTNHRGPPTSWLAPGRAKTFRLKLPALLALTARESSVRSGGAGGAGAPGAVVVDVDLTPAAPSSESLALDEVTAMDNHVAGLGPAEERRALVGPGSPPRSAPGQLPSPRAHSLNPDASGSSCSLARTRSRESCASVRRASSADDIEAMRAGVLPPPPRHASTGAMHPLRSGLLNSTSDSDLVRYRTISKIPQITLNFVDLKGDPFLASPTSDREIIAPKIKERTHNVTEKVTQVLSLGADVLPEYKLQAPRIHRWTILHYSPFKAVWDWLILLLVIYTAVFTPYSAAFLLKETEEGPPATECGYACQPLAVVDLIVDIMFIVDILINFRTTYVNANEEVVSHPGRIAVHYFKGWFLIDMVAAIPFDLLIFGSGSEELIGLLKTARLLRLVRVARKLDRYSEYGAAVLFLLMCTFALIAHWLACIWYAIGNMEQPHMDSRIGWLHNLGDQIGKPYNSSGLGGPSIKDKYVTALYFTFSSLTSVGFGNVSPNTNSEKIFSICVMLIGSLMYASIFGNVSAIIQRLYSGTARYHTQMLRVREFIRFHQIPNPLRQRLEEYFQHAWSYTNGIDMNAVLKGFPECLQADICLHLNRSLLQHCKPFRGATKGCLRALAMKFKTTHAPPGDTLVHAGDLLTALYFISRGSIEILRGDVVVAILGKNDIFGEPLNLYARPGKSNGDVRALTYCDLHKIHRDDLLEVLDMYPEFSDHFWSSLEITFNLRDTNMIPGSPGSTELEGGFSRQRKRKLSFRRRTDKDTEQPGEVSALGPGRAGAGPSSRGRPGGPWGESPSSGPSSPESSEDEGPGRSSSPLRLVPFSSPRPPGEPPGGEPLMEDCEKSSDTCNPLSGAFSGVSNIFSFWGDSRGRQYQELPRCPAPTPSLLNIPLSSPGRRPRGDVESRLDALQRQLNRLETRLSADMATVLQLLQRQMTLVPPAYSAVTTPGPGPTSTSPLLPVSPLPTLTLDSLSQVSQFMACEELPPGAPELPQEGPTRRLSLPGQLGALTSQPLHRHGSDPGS
Put plainly: hERG inhibition assay by automated patch-clamp electrophysiology in hERG-overexpressing HEK293 cells. The series is classed as cell-based. How it is done:
hERG channel inhibition assay was performed using patch-clamp electrophysiology. HEK293 cells stably overexpressing hERG channels (Eurofins Scientific, Luxembourg) were cultured in Dulbecco’s Modified Eagle Medium F-12 (GIBCO, Carlsbad, CA, USA) supplemented with 10% (v/v) fetal bovine serum (FBS) and 1% penicillin/streptomycin at 37 °C with 5% CO2 until reaching approximately 80% confluency. Cells were then subcultured using trypsin (HyClone, Marlborough, MA, USA), to enzymatically detach adherent HEK293 cells, centrifuged, and resuspended in the External standard buffer (Nanion Technologies, Munich, Germany).
A gigaohm seal was formed after cell seeding in the NPC-16 chip (Nanion Technologies) wells. Brief suction pulses were applied to achieve whole-cell configuration. The hERG channel activity was assessed using a voltage protocol consisting of steps to −80 mV, −40 mV, +40 mV, −40 mV, and back to −80 mV, triggering tail currents. Each well’s peak hERG tail current served as the baseline activity level. To evaluate the inhibitory effects of the six tested compounds, their stock solutions ([…]) were diluted with the external standard buffer to final concentrations of 100 µM, 10 µM, 1 µM, 0.1 µM, and 0.01 µM, and automatically applied to the wells. Subsequently, hERG channel activity was measured again using the same voltage protocol. The relative changes in hERG activity induced by the compounds were calculated and expressed as percentages using the following formula:% hERG activity = (Peak hERG tail current after compound treatment/Peak hERG tail current before compound treatment) × 100

Series [5] has as its system HepG2 cells. On the set-up: method as in PMID 29348769, PMID 31388314, PMID 40952293. To be noted: cited from earlier work.
The subject of series [6] is triple-negative breast cancer (TNBC) cells. On the set-up: method as in PMID 29348769, PMID 31388314, PMID 40952293. The following applies: cited from earlier work.
For series [7] the following is noted: AL single oral dose of 1000 mg/kg body weight (equivalent to 48.4 mg of ATD), healthy Thai subjects; cited from earlier work.
The conditions of series [8]: single oral dose of rikkunshito (7.5 g/day), healthy Japanese subjects; cited from earlier work.
For a further series, the system named is CYP2E1. On the set-up: method as in PMID 24146513. The following applies: in the Yahom Tultavai formulation; cited from earlier work.
A further series relates to CYP2D6. Set-up: method as in PMID 37553989. To be noted: EPMC as major active compound of the Dephrungsith formulation; cited from earlier work.
Another series concerns CYP1A1. Set-up: method as in PMID 24146513. To be noted: in the Yahom Tultavai formulation; cited from earlier work.
A further series deals with CYP1A2. Set-up: method as in PMID 24146513. To be noted: in the Yahom Tultavai formulation; cited from earlier work.
The conditions of series [9]: rats, oral dose of 100 mg/kg body weight; read-out: plasma Cmax; cited from earlier work.
Details of series [10]: method as in PMID 18039808. The following applies: oral 500 mg/kg dose in animals; cited from earlier work.
Setting [11] is: Homo sapiens, ReNcell VM, undifferentiated ReNcell VM cells, resazurin assay, 0.01-100 μM.
Setting [12] is: HepG2 cells, 24 h, resazurin assay, 0.01-100 μM.
[13] abbreviates: differentiated ReNcell VM cells (three weeks without growth factor), 24 h, resazurin assay.
Where [14] appears, read: hERG-overexpressing HEK293 cells, peak tail current, automated patch clamp, read-out: IC50, hERG channel activity.
Where [15] appears, read: Homo sapiens, undifferentiated ReNcell VM cells, resazurin assay, 0.01-100 μM.

The IC50 is the concentration at which inhibition is half-maximal. Turning to `COc1cc(/C=C/C(=O)CC(=O)/C=C/c2ccc(O)c(OC)c2)ccc1O` [CUR, Curcumin], the “plasma Cmax” value in series [1] is 2300 ng/mL. The IC50 in series [2] (setting [11]) was 21.1 µM; in [2] (undifferentiated ReNcell VM cells, resazurin assay, 0.01-100 μM), 21.2 µM; with HepG2 cells [3] (setting [12]), 21 µM.

In the case of `C=C1CCC[C@]2(C)CC[C@@H](C(C)(C)O)C[C@@H]12` [BEU, β-eudesmol], the 50% inhibitory concentration (IC50) is over 100 µM in [4] (setting [13]), 33.4 µM on hERG (setting [14]), over 100 µM in series [2] (setting [15]) and over 100 µM in the series on HepG2 cells [3] (setting [12]). In series [2], the “Inhibition of undifferentiated ReNcell NSC viability” value is “did not inhibit”.

On to `C/C=C/C#CC#C/C=C/c1ccco1` [ATD, Atractylodin], for which the “IC50, inhibitory effects on HepG2 cells” value in the series on HepG2 cells [5] was 26.19 mg/L (≈ 144 µM). In addition, in [6], the “IC50, triple-negative breast cancer (TNBC) cells” value was 92.11 mg/L (≈ 505 µM). In addition, the entries for the “maximal plasma concentration (Cmax)” value in series [7] and in series [8] were 50.35 (13.8–52.90) ng/mL and 0.002 to 20 ng/mL, respectively. The IC50 in [4] (ReNcell VM) was over 100 µM; against hERG it was 26.4 µM; against hERG (human), 22.4 µM; in [2] (Homo sapiens, ReNcell VM), over 100 µM; in the series on HepG2 cells [3] (HepG2, 24 h), over 100 µM. Further, the “Inhibition of undifferentiated ReNcell NSC viability” value in series [2] is given as “did not inhibit”.

Regarding `CCOC(=O)/C=C/c1ccc(OC)cc1` [EPMC, ethyl-p-methoxycinnamate], in the series on CYP2E1, the “CYP2E1 inhibition in vivo” value was “inhibits”. For the same compound, the “CYP2D6 inhibition in vitro” value in the series on CYP2D6 is on record as “potently inhibits”. In addition, the “CYP1A1 inhibition in vivo” value in the series with CYP1A1 was “inhibits”. In addition, the IC50 in series [4] (setting [13]) was over 100 µM; on hERG (setting [14]), 53 µM; in series [2] (setting [11]), over 100 µM; in the series on HepG2 cells [3] (HepG2, 24 h, HepG2 cells, 24 h, resazurin assay, 0.01-100 μM), over 100 µM. Also, in series [2], the “Inhibition of undifferentiated ReNcell NSC viability” value was “did not inhibit”. Also, the “CYP1A2 inhibition in vivo” value in the series with CYP1A2 is listed as “inhibits”.

One may read the Cmax as the peak of the concentration-time curve. On to `COc1c(O)cc2oc3cc(O)c(CC=C(C)C)c(O)c3c(=O)c2c1CC=C(C)C` [αMG, α-mangostin], for which the IC50 in series [4] (setting [13]) is 6 µM; on hERG (setting [14]), over 100 µM. Moreover, the Cmax in series [9] is 1.38 µM.

In the case of `CCC/C=C1\OC(=O)C2=C1CCC=C2` [LIG, ligustilide], the IC50 in series [4] (setting [13]) is over 100 µM; on hERG (setting [14]) it was 37.3 µM; in series [2] (setting [15]), over 100 µM; in the series on HepG2 cells [3] (setting [12]), over 100 µM. Also, the “Inhibition of undifferentiated ReNcell NSC viability” value in series [2] is recorded as “did not inhibit”. For the same compound, the “plasma Cmax” value in series [10] is 660 ng/mL.

With triton X-100 [reference compound], the “HepG2 cell viability compared to the 0.2% DMSO-treated group” value with HepG2 cells [3] is listed as “significant decrease in cell viability”.
